These results are taken from US5498710A, “Alkyl ether analogues of benzoporphyrin derivatives” (Health Research, Inc., priority 1994, dated 1996).

Data set [1] can be described thus: Electronic absorption, red absorption maximum. The format is physicochemical. Here is the method:
M.p.s were measured on a Thomas/Bristoline microscopic hot stage apparatus and were uncorrected. Silica gel 60 (70-230 and 230-400 mesh, Merck) or neutral alumina (Merck; usually Brockmann Grade III, i. e., deactivated with 6% water) were used for column chromatography. Preparative thin layer chromatography was carried out on 20×20 cm glass plates coated with Merck G 254 silica gel (1 mm thick). Analytical thin layer chromatography (TLC) was performed using merck 60 F254 silica gel (precoated sheets, 0.2 mm thick). Reactions were monitored by TLC and spectrophotometry and were carried out under nitrogen and in the dark. ^1 HNMR spectra were obtained in deuteriochloroform solution at 300 MHz using a General Electric QE300 spectrometer; chemical shifts are expressed in ppm relative to chloroform (7.258 ppm). Elemental analyses were performed at the Midwest Microlab, Ltd., Indiana, USA. Unless stated otherwise, electronic absorption spectra were measured in dichloromethane solution using a Hewlett-Packard 8450A spectrophotometer. Mass spectra were obtained at the Mass Spectrometry Facility, University of California, San Francisco and at the Department of Biophysics, Roswell Park Cancer Institute, Buffalo.

Data set [2] relates to SMT-F tumor. The data set can be described thus: In vivo antitumor (photodynamic) activity, SMT-F tumors in DBA/2 mice. Further details: species or system DBA/2 Ha-DD mouse. Particulars: for antitumor / photosensitizing activity: light 3 h post i.v. injection where stated; for in vivo photosensitizing efficacy / antitumor activity compared with BPD: mice, compared with BPD (mixture of 21 and 22). As to the method:
Tumor Response and Foot Response Experiments: For tumor response experiments (see Table 3), a 1mm^3 piece of SMT-F tumor from a donor DBA/2 Ha-DD mouse was implanted subcutaneously with a trocar into the axilla of a 5-7 week old female DBA/2 Ha-DD mouse. When the tumor had grown to about 4mm diameter, mice were injected intravenously (i.v.) with photosensitizers at various doses. At various time after injection, mice were restrained in Plexiglas® holders and each tumor was illuminated with 135 J/cm^2 light from a dye laser 171 (spectra physics). The light dose rate was 75 mW/cm^2 as measured with a PTR Optics […]. The percentage of short term control (non-palpable tumors) was recorded daily. For our study 6 mice/group were used.
(§1) In vivo Biological Activity: The in vivo photosensitizing ability of all the sensitizers was compared with that of commercial BPD in DBA/2 mice bearing subcutaneously implanted SMT-F tumors, a method previously described by Dougherty et al. All photosensitizers, including commercial BPD (mixture of 21 and 22) were first dissolved in a minimum quantity of Tween 80 and then diluted with 0.9% saline, to a final concentration of 1% Tween 80.
(§2) It can be seen from Table 3 that commercial BPD was quite effective at a dose of 5.0 mg/kg, 3 h post i.v. injection (4 out of six mice were tumor free at day 30). […] However, replacement of the vinyl with a 1-hexyloxyethyl group induced a remarkable difference in photosensitizing activity.

For data set [3], the system named is hind foot. In words: Foot-response experiments (skin phototoxicity). The format is in vivo, DBA/2 HaDD mice. As to the method:
Foot-response experiments were carried out on 5-7 week old female DBA/2 HaDD mice. Sensitizers were injected i.v. at the following doses: Photofrin® in normal saline, BPD (industrial preparation) in 1% Tween 80; n-hexyl ether derivative 40 in 1% Tween 80. After 1 or 5 days the mice were restrained without anesthesia in aluminum holders and one hind foot of each mouse was illuminated with light from a dye laser 171 (Spectra Physics). Illumination conditions (i.e., light dose, dose rate and wavelength) were as follows: Photofrin®, 5 mg/kg; BPD 5.0 mg/k (3.0 h), n-hexyl ether derivative 40 5.0 mg/kg (24 h) and 1.0 mg/kg (3 h). Light dose was measured with a Coherent 210 power meter and wavelength was measured with a PTR Optics monochromator. Sensitizer does for the foot response experiments corresponded to the lowest dose required to give maximum tumor control measured 7 days after treatment (see Table 3). Foot response was graded daily according to the scale in the legend to FIG. 13. Animals were euthanized immediately after peak foot scores were obtained.

Data set [4] has as its system SMT-F tumor. The data set can be described thus: In vivo antitumor (photodynamic) activity, SMT-F tumors in DBA/2 mice. Further details: species or system DBA/2 Ha-DD mouse.
The nature of data set [5]: Solubility of photosensitizers. The note with it: Tween 80, then 0.9% saline (1% Tween 80). Type of data set: physicochemical.
Excerpt: as §1, §2

Structures are written as SMILES. Entries after “also recorded” stand apart in the source; their conditions may differ.

The molecule `CCCCCCOC(C)C1=C(C)c2cc3[nH]c(cc4nc(cc5[nH]c(cc1n2)c(C)c5CCC(=O)OC)C(CCC(=O)OC)=C4C)C1(C)C3=CC=C(C(=O)OC)C1C(=O)OC` (mixture of isomers) [Compound 40, 8-(1-Hexyloxyethyl)benzoporphyrin Derivative] gave an absorption maximum wavelength in data set [1] (maximum red absorption peak, Table 3) of 676 nm. The “Tumor response (nonpalpable tumor), 1-2 d” value in data set [2] (1.0 mg/kg i.v., light 3 h after injection, day 1-2) was 6/6; in data set [4] (5.0 mg/kg i.v., light 24 h after injection, day 1-2) it was 6/6. Further, the “Tumor response (nonpalpable tumor), 7 d” value in data set [2] (1.0 mg/kg i.v., light 3 h after injection, day 7) is 3/6; in data set [4] (5.0 mg/kg i.v., light 24 h after injection, day 7) it was 6/6. In addition, the “Tumor response (nonpalpable tumor), 30 d” value in data set [2] (1.0 mg/kg i.v., light 3 h after injection, day 30) was 3/6; in data set [4] (5.0 mg/kg i.v., light 24 h after injection, day 30), 5/6. Also, the “antitumor / photosensitizing activity” value in data set [2] (1.0 mg/kg) is given as “active”. The “in vivo activity versus vinyl or ring B isomer” value in data set [2] (1.0 mg/kg, trans isomers compared) is recorded as “more active than the ring "B" modified isomer 45”. The “in vivo photosensitizing efficacy / antitumor activity compared with BPD” value in data set [2] is “significantly more active than the industrially prepared benzoporphyrin derivative; also recorded: better photosensitizing efficacy than benzoporphyrin derivative monocarboxylic acid; also recorded: better anti-tumor activity than BPD-MA”. Moreover, the “skin phototoxicity compared with Photofrin and BPD” value was “reduced skin phototoxicity” in data set [3] (1.0 mg/kg, 3 h post injection) and “reduced skin phototoxicity” in data set [3] (5.0 mg/kg, 24 h post injection). In data set [3] (dose not given), the “skin phototoxicity” value was “reduced residual skin phototoxicity compared with Photofrin; also recorded: reduced skin phototoxicity compared with BPD-MA and Photofrin”. Further, in data set [4] (5.0 mg/kg, light 24 h post i.v. injection), the “tumorcidal / photosensitizing activity” value is “excellent tumorcidal activity”.

Regarding `COC(=O)CCC1=C(C)c2cc3[nH]c(cc4nc(cc5[nH]c(cc1n2)c(CCC(=O)OC)c5C)C(C)=C4C(C)=O)C1(C)C3=CC=C(C(=O)OC)C1C(=O)OC` (stereo not drawn) [Compound 42, 3 -Acetylbenzoporphyrin Derivative], the “red shift in the absorption spectra” value in data set [1] (electron-withdrawing groups on macrocycle) is given as “significant red shift in the absorption spectra”. In addition, the “antitumor / photosensitizing activity” value in data set [2] (1.0 mg/kg) is “inactive”. Moreover, in data set [2], the “in vivo photosensitizing efficacy / antitumor activity compared with BPD” value is on record as “failed to improve their photosensitizing efficacy”. Besides, the “ease of dissolution” value in data set [5] is on record as “difficult to dissolve”.
